The results in this text go back to ChEMBL document CHEMBL4665681, “On the Promise of Photopharmacology Using Photoswitches: A Medicinal Chemist's Perspective” (J Med Chem, 2020).

The nature of series [1]: Thermal relaxation half life in PBS buffer. The class given is physicochemical.
In another series the target is Histone deacetylase 2 (Homo sapiens, UniProt Q92769). Description: Light-dependent inhibition of recombinant full length human HDAC2 expressed in baculovirus infected Sf9 insect cells preincubated for 1 hr in presence of LED light irradiation followed by substrate addition and measured for 30 mins by fluorescence method.
Histone deacetylase 2, sequence (Q92769 whole entry): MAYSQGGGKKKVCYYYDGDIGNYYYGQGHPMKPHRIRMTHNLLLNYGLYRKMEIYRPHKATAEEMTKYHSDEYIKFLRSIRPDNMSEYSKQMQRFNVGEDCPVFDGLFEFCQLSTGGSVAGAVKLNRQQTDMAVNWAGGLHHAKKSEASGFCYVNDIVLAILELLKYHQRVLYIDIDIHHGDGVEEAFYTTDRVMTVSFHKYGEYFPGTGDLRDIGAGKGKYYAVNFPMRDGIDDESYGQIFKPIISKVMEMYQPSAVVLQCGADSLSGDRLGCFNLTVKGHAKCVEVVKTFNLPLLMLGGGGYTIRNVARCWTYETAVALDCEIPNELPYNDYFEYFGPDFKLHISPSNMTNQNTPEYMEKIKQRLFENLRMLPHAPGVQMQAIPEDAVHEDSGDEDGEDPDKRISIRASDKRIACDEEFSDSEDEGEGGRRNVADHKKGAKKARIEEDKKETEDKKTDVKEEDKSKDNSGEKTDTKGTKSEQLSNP
For series [2], the system named is Escherichia coli. The series is described as follows: Antibacterial activity against Quinolone-sensitive Escherichia coli CS1562 (tolC6:tn10) using irradiated compound measured every 10 min for 12 hrs by broth dilution method. Format: functional. To be noted: light or radiation study. (In broth dilution the organism is exposed to a series of concentrations in liquid medium.)

The nature of series [3]: Half life of compound in water at 21x10^-6 M. The class given is physicochemical. To be noted: dose 21 10^-6M.
The subject of series [4] is Escherichia coli. The series is described as follows: Antibacterial activity against Quinolone-sensitive Escherichia coli CS1562 (tolC6:tn10) measured every 10 min for 12 hrs by broth dilution method. The class given is functional.
Series [5] is described as follows: Half life in Dutch Belted rabbit retina at 30 uM, IVT measured after 24 to 336 hrs by LC-MS/MS analysis. The class given is ADME, tissue-based, Oryctolagus cuniculus. To be noted: topical or ocular, time 24-336 hrs.

≈ marks a conversion by molar mass, not a printed value.

By IC50 is commonly meant the concentration that inhibits the measured activity by half. In series [1], `CN(C)c1ccc(/N=N\c2ccc(C(=O)Nc3cc(-c4cccs4)ccc3O)cc2)cc1` returned a t1/2 of 56 microsec. Further, on Histone deacetylase 2, the IC50 is less than 0.1 µM.

The term MIC denotes the lowest concentration that inhibits growth of the organism. A high value points to a less susceptible organism. What is called half-life is the time needed for the level to fall by half in the phase considered. Regarding `CCn1cc(C(=O)O)c(=O)c2ccc(/N=N\c3ccc(OC)c(C)c3)cc21`, the MIC is 16 mg/L (≈ 43.8 µM) against Escherichia coli [2] and not below 64 mg/L against Escherichia coli [4]. This molecule also had a half-life at 21 µM in series [3] of 0.0833 days.

For `CCN(Cc1ccccc1)c1ccc(/N=N/c2ccc(NC(=O)C[N+](CC)(CC)CC)cc2)cc1` [KIO-301], the half-life at 30 µM in series [5] was 24 days.
